Laboratory results reported in US9951021B2, “Compounds for inhibiting c-Myc/Max/DNA complex formation” (NATIONAL CANCER CENTER, priority 2016, dated 2018).

Target: T1, recombinant c-Myc/Max (Homo sapiens, UniProt P01106+P61244)
T1 construct: made in house
Test: Electrophoretic mobility shift assay (EMSA): inhibitory activity on DNA binding of recombinant c-Myc/Max
Settings: read-out: protein assay IC50
Description: 1) Preparation of Recombinant c-Myc and Max Proteins
Recombinant proteins were prepared as described in the following references: K. C. Jung et al., Fatty Acids, Inhibitors for the DNA Binding of c-Myc/Max Dimer, Suppress Proliferation and Induce Apoptosis of Differentiated HL-60 Human Leukemia Cell, Leukemia, 2006, 20(1), 122-7 or Kyung-Chae Jeong et al., Small-Molecule Inhibitors of c-Myc Transcriptional Factor Suppress Proliferation and Induce Apoptosis of Promyelocytic Leukemia Cell via Cell Cycle Arrest, Mol. BioSyst., 2010, 6, 1503-1509.
2) Electrophoretic Mobility Shift Assay (EMSA)
The inhibitory activity of each candidate compound on DNA binding of recombinant c-Myc/Max was measured using an electrophoretic mobility shift assay (EMSA). The ratio of protein-DNA complexes in each sample was evaluated by measuring band intensity. The oligonucleotides (E-box) corresponding to the consensus binding site of Myc/Max were dimerized through an annealing process. The protein mixture was incubated at room temperature for 5 minutes, and a DMSO solution containing each candidate compound was added thereto. The mixture was further incubated for 5 minutes, and the biotinylated DNA was added. To achieve a state of equilibrium, the final mixture was incubated at room temperature for 10 minutes. The protein-DNA complexes were separated from unbound free DNA by pre-electrophoresis using 8% polyacrylamide gel and 1×TBE buffer. After pre-electrophoresis, electrophoresis was performed at 120 V for 1 hour in 1×TBE buffer. Each band was visualized using HRP-conjugated streptavidin and an ECL solution, and band intensity was measured using image analysis software.

T1 sequence (P01106 whole entry): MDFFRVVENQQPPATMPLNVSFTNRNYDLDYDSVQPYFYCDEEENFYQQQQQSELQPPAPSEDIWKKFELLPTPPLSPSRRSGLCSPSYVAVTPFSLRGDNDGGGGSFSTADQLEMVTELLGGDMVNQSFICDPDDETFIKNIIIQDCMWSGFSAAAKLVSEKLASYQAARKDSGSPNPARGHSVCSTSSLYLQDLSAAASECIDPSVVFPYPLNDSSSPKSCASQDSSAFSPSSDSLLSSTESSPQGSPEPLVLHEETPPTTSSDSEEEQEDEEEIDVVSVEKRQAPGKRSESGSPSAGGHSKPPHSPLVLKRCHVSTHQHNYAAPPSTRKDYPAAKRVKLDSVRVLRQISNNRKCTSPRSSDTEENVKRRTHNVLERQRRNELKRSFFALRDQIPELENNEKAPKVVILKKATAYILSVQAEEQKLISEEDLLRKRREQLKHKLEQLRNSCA
T1 sequence (P61244 whole entry): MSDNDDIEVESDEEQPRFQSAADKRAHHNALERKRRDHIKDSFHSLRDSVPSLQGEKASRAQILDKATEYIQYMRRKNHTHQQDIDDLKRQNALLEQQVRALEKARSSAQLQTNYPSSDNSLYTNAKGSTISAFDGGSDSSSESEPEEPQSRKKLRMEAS

| Compound | IC50 |
| --- | --- |
| CC(=O)c1c([S+]([O-])Cc2cc(Cl)ccc2Cl)[nH]c2c(Br)ccc(Cl)c2c1=O (centres unmarked) [Compound 44, 3-acetyl-8-bromo-5-chloro-2-((2,5-dichlorobenzyl)sulfinyl)quinolin-4(1H)-one] | < 1000 nM |
| CSc1c(C(C)=O)c(=O)c2c(Cl)ccc(Br)c2n1S(=O)(=O)c1ccc(C(C)(C)C)cc1 [Compound 40, 3-acetyl-8-bromo-1-((4-(tert-butyl)phenyl)sulfonyl)-5-chloro-2-(methylthio)quinolin-4(1H)-one] | < 1000 nM |
| COc1cc(C[S+]([O-])c2[nH]c3c(Br)ccc(Cl)c3c(=O)c2C(C)=O)cc(OC)c1 (centres unmarked) [Compound 59, 3-acetyl-8-bromo-5-chloro-2-((3,5-dimethoxybenzyl)sulfinyl)quinolin-4(1H)-one] | < 1000 nM |
| CC(=O)c1c([S+](C)[O-])n(C(=O)c2ccc(Br)cc2)c2c(Br)ccc(Cl)c2c1=O (centres unmarked) [Compound 9, 3-acetyl-8-bromo-1-(4-bromobenzoyl)-5-chloro-2-(methylsulfinyl)quinolin-4(1H)-one] | < 1000 nM |
| CC(=O)c1c([S+]([O-])Cc2ccc(S(F)(F)(F)(F)F)cc2)[nH]c2c(Br)ccc(Cl)c2c1=O (centres unmarked) [Compound 68, 3-acetyl-8-bromo-5-chloro-2-((4-(pentafluoro-16-sulfanyl)benzyl)sulfinyl)quinolin-4(1H)-one] | < 1000 nM |
| CC(=O)c1c([S+]([O-])Cc2cc(F)cc(S(F)(F)(F)(F)F)c2)[nH]c2c(Br)ccc(Cl)c2c1=O (centres unmarked) [Compound 76, 3-acetyl-8-bromo-5-chloro-2-((3-fluoro-5-(pentafluoro-λ6-sulfanyl)benzyl)sulfinyl)quinolin-4(1H)-one] | < 1000 nM |
| CC(=O)c1c([S+]([O-])Cc2cccc(I)c2)[nH]c2c(Br)ccc(Cl)c2c1=O (centres unmarked) [Compound 48, 3-acetyl-8-bromo-5-chloro-2-((3-iodobenzyl)sulfinyl)quinolin-4(1H)-one] | < 1000 nM |
| Cc1cc(C[S+]([O-])c2[nH]c3c(Cl)ccc(Cl)c3c(=O)c2C(=O)C2CC2)no1 (centres unmarked) [Compound 97, 5,8-dichloro-3-(cyclopropanecarbonyl)-2-(((5-methylisoxazol-3-yl)methyl)sulfinyl)quinolin-4(1H)-one] | < 1000 nM |
| CC(=O)c1c([S+]([O-])Cc2ccc(C(F)(F)F)o2)[nH]c2c(Br)ccc(Cl)c2c1=O (centres unmarked) [Compound 72, 3-acetyl-8-bromo-5-chloro-2-(((5-(trifluoromethyl)furan-2-yl)methyl)sulfinyl)quinolin-4(1H)-one] | < 1000 nM |
| COC(=O)c1ccc(C[S+]([O-])c2[nH]c3c(Cl)ccc(Cl)c3c(=O)c2C(C)=O)cc1 (centres unmarked) [Compound 91, methyl 4-(((3-acetyl-5,8-dichloro-4-oxo-1,4-dihydroquinolin-2-yl)sulfinyl)methyl)benzoate] | < 1000 nM |
| CC(=O)c1c([S+](C)[O-])[nH]c2c(Cl)ccc(Cl)c2c1=O (centres unmarked) [Compound 6, 3-acetyl-5,8-dichloro-2-(methylsulfinyl)quinolin-4(1H)-one] | < 1000 nM |
| CC(=O)c1c([S+]([O-])Cc2ccc(S(F)(F)(F)(F)F)cc2)[nH]c2c(F)ccc(F)c2c1=O (centres unmarked) [Compound 80, 3-acetyl-5,8-difluoro-2-((4-(pentafluoro-λ6-sulfanyl)benzyl)sulfinyl)quinolin-4(1H)-one] | < 1000 nM |
| CC(=O)c1c(S(C)(=O)=O)n(S(=O)(=O)c2ccc(C(C)(C)C)cc2)c2c(Br)ccc(Cl)c2c1=O [Compound 41, 3-acetyl-8-bromo-1-((4-(tert-butyl)phenyl)sulfonyl)-5-chloro-2-(methylsulfonyl)quinolin-4(1H)-one] | < 1000 nM |
| COc1cccc2[nH]c([S+]([O-])Cc3cc(C)on3)c(C(C)=O)c(=O)c12 (centres unmarked) [Compound 94, 3-acetyl-5-methoxy-2-(((5-methylisoxazol-3-yl)methyl)sulfinyl)quinolin-4(1H)-one] | < 1000 nM |
| CC(=O)c1c([S+]([O-])Cc2ccccc2C#N)[nH]c2c(Br)ccc(Cl)c2c1=O (centres unmarked) [Compound 58, 2-(((3-acetyl-8-bromo-5-chloro-4-oxo-1,4-dihydroquinolin-2-yl)sulfinyl)methyl)benzonitrile] | < 1000 nM |
| CC(=O)c1c([S+]([O-])Cc2cccnc2)[nH]c2c(Br)ccc(Cl)c2c1=O (centres unmarked) [Compound 84, 3-acetyl-8-bromo-5-chloro-2-((pyridin-3-ylmethyl)sulfinyl)quinolin-4(1H)-one] | < 1000 nM |
| CSc1c(C(C)=O)c(=O)c2c(Cl)ccc(Br)c2n1S(=O)(=O)c1ccc([N+](=O)[O-])cc1 [Compound 38, 3-acetyl-8-bromo-5-chloro-2-(methylthio)-1-((4-nitrophenyl)sulfonyl)quinolin-4(1H)-one] | < 1000 nM |
| CC(=O)c1c(Sc2ccccc2)[nH]c2c(Br)ccc(Cl)c2c1=O [Compound 12, 3-acetyl-8-bromo-5-chloro-2-(phenylthio)quinolin-4(1H)-one] | < 1000 nM |

| Compound | IC50 |
| --- | --- |
| O=C(c1ccccc1)c1c([S+]([O-])Cc2ccc(S(F)(F)(F)(F)F)cc2)[nH]c2c(F)ccc(F)c2c1=O (centres unmarked) [Compound 87, 3-benzoyl-5,8-difluoro-2-((4-(pentafluoro-λ6-sulfanyl)benzyl)sulfinyl)quinolin-4(1H)-one] | < 1000 nM |
| CC(=O)c1c([S+]([O-])Cc2cccc(S(F)(F)(F)(F)F)c2)[nH]c2c(Br)ccc(Cl)c2c1=O (centres unmarked) [Compound 77, 3-acetyl-8-bromo-5-chloro-2-((3-(pentafluoro-λ6-sulfanyl)benzyl)sulfinyl)quinolin-4(1H)-one] | < 1000 nM |
| COC(=O)c1ccc(C[S+]([O-])c2[nH]c3c(Cl)ccc(Cl)c3c(=O)c2C(C)=O)o1 (centres unmarked) [Compound 89, methyl 5-(((3-acetyl-5,8-dichloro-4-oxo-1,4-dihydroquinolin-2-yl)sulfinyl)methyl)furan-2-carboxylate] | < 1000 nM |
| CSc1[nH]c2c(Br)ccc(Cl)c2c(=O)c1C(C)=O [Compound 2, 3-acetyl-8-bromo-5-chloro-2-(methylthio)quinolin-4(1H)-one] | < 1000 nM |
| CC(=O)c1c(Sc2ccc(Br)cc2)[nH]c2c(Br)ccc(Cl)c2c1=O [Compound 16, 3-acetyl-8-bromo-2-((4-bromophenyl)thio)-5-chloroquinolin-4(1H)-one] | < 1000 nM |
| CC(=O)c1c([S+]([O-])Cc2ccc(C(F)(F)F)o2)[nH]c2c(F)ccc(F)c2c1=O (centres unmarked) [Compound 81, 3-acetyl-5,8-difluoro-2-(((5-(trifluoromethyl)furan-2-yl)methyl)sulfinyl)quinolin-4(1H)-one] | < 1000 nM |
| CC(=O)c1c([S+]([O-])Cc2ccc(C#N)s2)[nH]c2c(Br)ccc(Cl)c2c1=O (centres unmarked) [Compound 98, 5-(((3-acetyl-8-bromo-5-chloro-4-oxo-1,4-dihydroquinolin-2-yl)sulfinyl)methyl)thiophene-2-carbonitrile] | < 1000 nM |
| CC(=O)c1c([S+]([O-])Cc2c(F)c(F)c(F)c(F)c2F)[nH]c2c(Br)ccc(Cl)c2c1=O (centres unmarked) [Compound 78, 3-acetyl-8-bromo-5-chloro-2-(((perfluorophenyl)methyl)sulfinyl)quinolin-4(1H)-one] | < 1000 nM |
| CC(=O)c1c([S+]([O-])Cc2ccc(C(F)(F)F)nc2C)[nH]c2c(Br)ccc(Cl)c2c1=O (centres unmarked) [Compound 102, 3-acetyl-8-bromo-5-chloro-2-(((2-methyl-6-(trifluoromethyl)pyridin-3-yl)methyl)sulfinyl)quinolin-4(1H)-one] | < 1000 nM |
| CSc1c(C(C)=O)c(=O)c2c(Cl)ccc(Br)c2n1S(=O)(=O)c1ccc(Cl)cc1 [Compound 37, 3-acetyl-8-bromo-5-chloro-1-((4-chlorophenyl)sulfonyl)-2-(methylthio)quinolin-4(1H)-one] | < 1000 nM |
| CCS(=O)(=O)n1c([S+](C)[O-])c(C(C)=O)c(=O)c2c(Cl)ccc(Br)c21 (centres unmarked) [Compound 39, 3-acetyl-8-bromo-5-chloro-1-(ethylsulfonyl)-2-(methylsulfinyl)quinolin-4(1H)-one] | < 1000 nM |
| CC(=O)c1c(S/C=C\C(=O)O)[nH]c2c(Br)ccc(Cl)c2c1=O [Compound 67, (Z)-3-((3-acetyl-8-bromo-5-chloro-4-oxo-1,4-dihydroquinolin-2-yl)thio)acrylic acid] | < 1000 nM |
| CC(=O)c1c(SCc2ccc(Cl)cc2)[nH]c2c(Br)ccc(Cl)c2c1=O [Compound 10, 3-acetyl-8-bromo-5-chloro-2-((4-chlorobenzyl)thio)quinolin-4(1H)-one] | < 1000 nM |
| CC(=O)c1c([S+]([O-])c2ccccc2)[nH]c2c(Br)ccc(Cl)c2c1=O (centres unmarked) [Compound 13, 3-acetyl-8-bromo-5-chloro-2-(phenylsulfinyl)quinolin-4(1H)-one] | < 1000 nM |
| COc1ccccc1[S+]([O-])c1[nH]c2c(Br)ccc(Cl)c2c(=O)c1C(C)=O (centres unmarked) [Compound 15, 3-acetyl-8-bromo-5-chloro-2-((2-methoxyphenyl)sulfinyl)quinolin-4(1H)-one] | < 1000 nM |
| CSc1c(C(C)=O)c(=O)c2c(Cl)ccc(Br)c2n1S(C)(=O)=O [Compound 35, 3-acetyl-8-bromo-5-chloro-1-(methylsulfonyl)-2-(methylthio)quinolin-4(1H)-one] | < 1000 nM |
| CC(=O)c1c(SCc2ccc([N+](=O)[O-])cc2)[nH]c2c(Br)ccc(Cl)c2c1=O [Compound 32, 3-acetyl-8-bromo-5-chloro-2-((4-nitrobenzyl)thio)quinolin-4(1H)-one] | < 1000 nM |
